This note sets out measurements from patent US6281214A, “Biphenyl derivatives” (Eisai Co., Ltd, priority 1994, dated 2001).

The structures appear in SMILES notation. Where two headings read alike, the source gives them in different places. Some results are limits rather than exact numbers.

Parameters in all cases: species or system SD rats
The target of assay [1] is T1, serotonin S2 receptor (Rattus norvegicus, UniProt P14842).
T1 construct: The receptor fraction prepared from the cortex was molten and suspended; from tissue; host or cells: cerebral cortex of SD rats (membrane fraction)
T1 sequence (P14842 whole entry): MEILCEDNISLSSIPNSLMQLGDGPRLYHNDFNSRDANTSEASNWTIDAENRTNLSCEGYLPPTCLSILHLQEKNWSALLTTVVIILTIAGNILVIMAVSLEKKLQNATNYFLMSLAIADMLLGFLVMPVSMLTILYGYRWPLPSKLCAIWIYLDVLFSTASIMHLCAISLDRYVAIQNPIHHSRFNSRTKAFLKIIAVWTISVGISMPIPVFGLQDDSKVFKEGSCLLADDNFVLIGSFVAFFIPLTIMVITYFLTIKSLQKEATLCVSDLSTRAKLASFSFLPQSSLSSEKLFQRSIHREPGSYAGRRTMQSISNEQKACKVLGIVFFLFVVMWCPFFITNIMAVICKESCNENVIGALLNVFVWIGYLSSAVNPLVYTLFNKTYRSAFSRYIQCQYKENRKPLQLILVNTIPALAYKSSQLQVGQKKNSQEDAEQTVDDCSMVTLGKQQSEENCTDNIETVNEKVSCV
In words: serotonin S2 receptor binding test ([3H] Ketanserin Binding Test). To be noted: 1 nM [3H] Ketanserin, rat cortex, 37° C., 15 minutes. On the procedure: (§1) The compounds of the present invention were subjected to each of serotonin S2 receptor binding test, dopamine D2 receptor binding test and adrenergic α1 receptor binding test.
(§2) The following reagents were used in this test.
(§3) These reagents and samples were each dissolved in 10% ethanol before use. Among them, water-insoluble compounds were each dissolved in ethanol and the obtained solution was diluted with distilled water to an ethanol concentration of 10%. Further, Methylsergide maleate was used in a state dissolved in distilled water.
(§4) SD rats aged 6 to 8 weeks were used.
(§5) SD rats were each slaughtered with a guillotine to extirpate its cerebrum. The cortex and corpus striatum were separated from the cerebrum. The former was used in serotonin S2 receptor binding test and adrenergic α1, receptor binding test, while the latter was used in dopamine D2 receptor binding test.
(§6) The cortex was homogenized in a 0.32 M sucrose solution in an amount ten times the wet weight of the cortex by the use of a teflon glass homogenizer and the resulting mixture was centrifuged at 10,000×G for 20 minutes. The obtained sediment was suspended in 50 mM Tris hydrochloride (pH 7.4) in an amount ten times the initial wet weight of the cortex by the use of a histocothrom, and the obtained suspension was centrifuged at 10,000×G for 20 minutes. This operation was repeated twice. The obtained sediment was suspended in 50 mM Tris hydrochloride (pH 7.4) in an amount 20 times the initial wet weight of the cortex by the use of a histocothrom. The suspension thus prepared was used as a receptor fraction. This receptor fraction was stored at -80° C. until use.
4. [^3 ] Ketanserin Binding Test
The receptor fraction prepared from the cortex was molten and suspended by the use of a histocothrom. The resulting suspension was incubated together with 1 nM-[^3 H] Ketanserin at 37° C. for 15 minutes. The resulting reaction system was filtered through a Whatman GF/B glass filter with an MR-30R type cell harvester mfd. by Blandel. The resulting filter was washed twice with 5 ml of 50 mM Tris hydrochloride (ph 7.4) cooled with ice and the radioactivity of the Ketanserin bound the receptor was determined by the use of a liquid scintillation counter with 5 ml of ACS II. The binding detected in the presence of […] of Methylsergide was regarded as nonspecific binding.
(§7) Each IC50 value was calculated by the probit method and each Ki value was determined by the following formula: [formula]
(§8) In the above formula, C represents the concentration of radioligand, and Kd represents the affinity of radioligand for the receptor as determined by the Scatchard analysis.

For assay [2], the target named is T2, dopamine D2 receptor (Rattus norvegicus, UniProt P61169).
T2 construct: the receptor fraction prepared from the corpus striatum was molten and suspended; from tissue; host or cells: corpus striatum of SD rats (membrane fraction)
T2 sequence (P61169 whole entry): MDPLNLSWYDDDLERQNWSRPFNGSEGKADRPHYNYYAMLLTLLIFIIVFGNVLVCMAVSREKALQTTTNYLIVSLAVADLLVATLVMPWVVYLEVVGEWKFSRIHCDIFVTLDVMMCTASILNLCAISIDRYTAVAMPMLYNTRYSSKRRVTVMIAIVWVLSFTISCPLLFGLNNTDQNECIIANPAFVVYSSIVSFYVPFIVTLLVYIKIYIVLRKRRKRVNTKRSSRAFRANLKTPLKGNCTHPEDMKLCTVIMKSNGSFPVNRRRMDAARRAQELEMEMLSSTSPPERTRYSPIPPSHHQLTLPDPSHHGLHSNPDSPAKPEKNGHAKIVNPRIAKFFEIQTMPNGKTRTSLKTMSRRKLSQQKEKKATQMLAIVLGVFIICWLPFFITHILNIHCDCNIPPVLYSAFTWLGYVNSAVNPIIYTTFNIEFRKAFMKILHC
Nature of the assay: dopamine D2 receptor binding test ([3H] Spiperone Binding Test). The following applies: 1 nM [3H] Spiperone, rat corpus striatum, room temperature, 60 minutes. The procedure: as §1, §2, §3, §4, §5
On the other hand, the corpus striatum was homogenized in a 0.32 M sucrose solution in an amount ten times the wet weight of the corpus striatum by the use of a teflon glass homogenizer and the obtained mixture was centrifuged at 1,000×G for 20 minutes. The obtained supernatant was centrifuged at 10,000×G for 20 minutes. The obtained sediments were suspended together in 50 mM Tris hydrochloride (pH 7.4) in an amount ten times the initial wet weight of the corpus striatum by the use of a histocothrom, and the obtained suspension was centrifuged at 10,000×G for 20 minutes. This operation was repeated thrice. The resulting sediment was suspended in 50 mM Krebs-Tris (pH 7.4) in an amount 100 times the initial wet weight of the corpus striatum by the use of a histocothrom. The obtained suspension was used as a receptor fraction. This receptor fraction was stored at -80° C. until use.
as §7, §8
5. [^3 H] Spiperone Binding Test
This test was conducted in the same manner as that of the binding test of [^3 H] Ketanserin except that the receptor fraction prepared from the corpus striatum was molten and suspended with a histocothrom, and the obtained suspension was incubated together with 1 nM-[^3 H], Spiperone at room temperature for 60 minutes and that the binding detected in the presence of 10 μl of Spiperone was regarded as nonspecific binding.

The target in assay [3] is adrenergic α1 receptor. In words: adrenergic α1 receptor binding test ([3H] Prazosin Binding Test). The following applies: 1 nM [3H] Prazosin, rat cortex, room temperature, 60 minutes. On the procedure: as §1, §2, §3, §4, §5, §6, §7, §8
6. [^3 H] Prazosin Binding Test
This test was conducted in the same manner as that of the binding test of [^3 H] Ketanserin except that the receptor fraction prepared from the cortex was molten and suspended with a histocothrom, and the obtained suspension was incubated together with 1 nM-[^3 H] Prazosin at room temperature for 60 minutes and that the binding detected in the presence of 10 μl of Phentolamine was regarded as nonspecific binding.

Where [4] appears, read: read-out: Ki value, dopamine D2 receptor.

In the case of `CCN1CCN(c2cc(-c3ccccc3)c(OC)c(C(O)c3ccccn3)c2)CC1` (centres unmarked) [Example 112, 1-Ethyl-4-[3-phenyl-4-methoxy-5-(2-pyridyl)hydroxymethyl]phenylpiperazine], the Ki in assay [1] was 7 nM; in assay [2] (setting [4]), 972 nM; in assay [3], > 1000 nM.
`CCc1ccccc1-c1cc(N2CCN(CCO)CC2)cc(C(F)CC)c1Cl` (centres unmarked) [Example 218, 1-(2-Hydroxyethyl)-4-[3-(2-ethylphenyl)-4-chloro-5-(1-fluoropropyl)]phenylpiperazine]: the figures for the Ki in assay [1] and in assay [2] (setting [4]) were 30.1 nM and 5.39 nM, respectively.
As for `CCN1CCN(c2cc(CCCF)c(OC)c(-c3ccccc3)c2)CC1` [Example 77, 1-Ethyl-4-[3-phenyl-4-methoxy-5-(3-fluoropropyl)]phenylpiperazine], the Ki worked out at 24.3 nM in assay [1], 40 nM in assay [2] (setting [4]) and 182 nM in assay [3].
For `CCN1CCN(c2cc(CCO)c(OC)c(-c3ccccc3)c2)CC1` [Example 66, 1-Ethyl-4-[3-phenyl-4-methoxy-5-(2-hydroxyethyl)]phenylpiperazine] the same measures were 65.9 nM, 18.3 nM and 127 nM.
Consider `CCN1CCN(c2cc(-c3ccccc3C)c(Cl)c(C(F)(F)CC)c2)CC1` [Example 55, 1-Ethyl-4-[3-(2-tolyl)-4-chloro-5-(1,1-difluoropropyl)]phenylpiperazine], for which the Ki in assay [1] is 113 nM; in assay [2] (setting [4]), 3.1 nM; in assay [3] it was > 1000 nM.
For `CCS(=O)(=O)c1cc(N2CCN(CCc3ccncc3)CC2)cc(-c2ccc(F)cc2)c1OC` [Example 201, 1-[2-(4-Pyridyl)ethyl]-4-[3-(4-fluorophenyl)-4-methoxy-5-ethanesulfonyl]phenylpiperazine] the same measures were 3.17 nM, 19.7 nM and 12.9 nM.
As for `CCN1CCN(c2cc(-c3ccccc3)c(OC(C)C)c(-c3ccccc3)c2)CC1` [Example 60, 1-Ethyl-4-(3,5-diphenyl-4-isopropxy)phenylpiperazine], the Ki in assay [1], in assay [2] (setting [4]) and in assay [3] was > 1000 nM throughout.
As for `CCCS(=O)(=O)c1cc(N2CCN(C)CC2)cc(-c2ccc(F)cc2)c1OC` [Example 193, 1-Methyl-4-[3-(4-fluorophenyl)-4-methoxy-5-propanesulfonyl]phenylpiperazine], the Ki in assay [1] came to 1.61 nM; in assay [2] (setting [4]) it was 19.3 nM; in assay [3] it was 585 nM.
For the compound `CC[C@@H](F)c1cc(N2CCN(CCO)CC2)cc(-c2ccccc2C(F)(F)F)c1Cl` [Example 219, 1-(2-Hydroxyethyl)-4-{3-(2-trifluoromethylphenyl)-4-chloro-5-[1-(R)-fluoropropyl]}phenylpiperazine], the figures for the Ki in assay [1] and in assay [2] (setting [4]) were 151 nM and 5.54 nM, respectively.
For the compound `CCCS(=O)(=O)Nc1cc(N2CCN(CC)CC2)cc(-c2ccccc2)c1Cl` [Example 184, 1-Ethyl-4-(3-phenyl-4-chloro-5-propanesulfonylamino)phenylpiperazine], the results for the Ki in assay [1], in assay [2] (setting [4]) and in assay [3] were 2.09 nM, 0.17 nM and 4.52 nM, respectively.
Turning to `CCN1CCN(c2cc(-c3ccc(F)cc3C)c(Cl)c(S(=O)(=O)CC3CC3)c2)CC1` [Example 148, 1-Ethyl-4-{3-[2(4-fluorotolyl)]-4-chloro-5-cyclopropylmethylsulfonyl}phenylpiperazine], the Ki in assay [1] was determined as 22.4 nM; in assay [2] (setting [4]), 12.1 nM; in assay [3] it was 278 nM.
With `CCCc1cc(N2CCN(CC)CC2)cc(-c2ccc(F)cc2F)c1OC` [Example 91, 1-Ethyl-4-[3-(2,4-difluorophenyl)-4-methoxy-5-propyl]phenylpiperazine], the Ki in assay [1] came out at 37.1 nM; in assay [2] (setting [4]) it was 7.34 nM; in assay [3], 323 nM.
Take `CC[C@H](F)c1cc(N2CCN(C)CC2)cc(-c2ccccc2CF)c1Cl` [Example 210, 1-Methyl-4-{3-(2-fluoromethylphenyl)-4-chloro-5-[1-(S)-fluoropropyl]}phenylpiperazine]: the Ki in assay [1] amounted to 6.25 nM; in assay [2] (setting [4]), 16.1 nM.
As for `CCS(=O)(=O)c1cc(N2CCN(CCF)CC2)cc(-c2ccc(F)cc2)c1OC` [Example 203, 1-(2-Fluoroethyl)-4-[3-(4-fluorophenyl)-4-methoxy-5-ethanesulfonyl]phenylpiperazine], the Ki in assay [1] was determined as 54.8 nM.
Take `C/C=C/c1cc(N2CCN(CC)CC2)cc(-c2ccccc2Cl)c1Cl` [Example 204]: the inhibition constant Ki in assay [1] came out at 187 nM; in assay [2] (setting [4]), 14.4 nM.
For `CC[C@@H](F)c1cc(N2CCN(CC)CC2)cc(-c2ccccc2C(F)(F)F)c1Cl` [Example 216, 1-Ethyl-4-{3-(2-trifluoromethylphenyl)-4-chloro-5-[1-(R)-fluoropropyl]}phenylpiperazine] the same measures were 79 nM and 11.3 nM.
As to `CC[C@@H](F)c1cc(N2CCN(C)CC2)cc(-c2ccccc2CF)c1Cl` [Example 209], the Ki in assay [1] came out at 42.7 nM; in assay [2] (setting [4]), 3.9 nM.
For `CCc1ccccc1-c1cc(N2CCN(CC)CC2)cc(C(F)CC)c1Cl` (centres unmarked) [Example 217, 1-Ethyl-4-[3-(2-ethylphenyl)-4-chloro-5-(1-fluoropropyl)]phenylpiperazine] the same measures were 25.5 nM and 3.57 nM.
As to `CCS(=O)(=O)c1cc(N2CCN(Cc3ccccn3)CC2)cc(-c2ccc(F)cc2)c1OC` [Example 199, 1-(2-Pyridylmethyl)-4-[3-(4-fluorophenyl)-4-methoxy-5-ethanesulfonyl]phenylpiperazine], the Ki in assay [1] came to 63.2 nM; in assay [2] (setting [4]) it was 51.5 nM.
The like results for `CCC(Cl)c1cc(N2CCN(CC)CC2)cc(-c2ccccc2Cl)c1Cl` (centres unmarked) [Example 205, 1-Ethyl-4-[3-(2-chlorophenyl)-4-chloro-5-(1-chlorophenyl0phenylpiperazine)]phenylpiperazine] were, in that order, 51.2 nM and 2.83 nM.
Take `CCC(F)c1cc(N2CCN(CC)CC2)cc(-c2c(C)cccc2C)c1Cl` (centres unmarked) [Example 215, 1-Ethyl-4-[3-(2,6-xylyl)-4-chloro-5-(1-fluoropropyl)]phenylpiperazine]: the Ki came out at 15.3 nM in assay [1] and 2.28 nM in assay [2] (setting [4]).
In the case of `CCS(=O)(=O)c1cc(N2CCNCC2)cc(-c2ccc(F)cc2)c1OC` [Example 202, 1-[3-(4-Fluorophenyl)-4-methoxy-5-ethanesulfonyl]phenylpiperazine], the Ki in assay [1] came out at 6.33 nM; in assay [2] (Ki value, dopamine D2 receptor), 90.5 nM.
`CCC(F)c1cc(N2CCN(CCO)CC2)cc(-c2ccccc2Cl)c1Cl` (centres unmarked) [Example 23, 1-(2-Hydroxyethyl)-4-[3-(2-chlorophenyl)-4-chloro-5-(1-fluoropropyl)]phenylpiperazine]: the Ki in assay [1] was determined as 51.2 nM; in assay [2] (setting [4]), 7.22 nM.
`CC[C@@H](F)c1cc(N2CCN(CC)CC2)cc(-c2ccc(F)cc2C)c1Cl` [Example 212, 1-Ethyl-4-{3-[2-(4-fluorotolyl)]-4-chloro-5-[1-(R)-fluorophenyl]}phenylpiperazine]: the Ki in assay [1] was determined as 1020 nM; in assay [2] (setting [4]), 3.9 nM.
For `CCN1CCN(c2cc(NS(=O)(=O)c3ccccc3)c(OC)c(-c3ccccc3)c2)CC1` [Example 120] the same measures were 17.4 nM and 0.36 nM.
